From PubChem BioAssay (NCI)
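Following 48 hours of exposure in 96-well plates, responses at five concentrations were used to interpolate endpoints linearly. Abbreviation: GI50, concentration required for 50% inhibition of growth. The concentration for full growth arrest is given as TGI.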

Legend:
Assay in all cases: NCI tumour cell line growth inhibition, 48 h
CAKI-1 renal = system: CAKI-1 renal
K-562 leukemia = system: K-562 leukemia
MALME-3M melanoma = system: MALME-3M melanoma
MCF7 breast = system: MCF7 breast
MDA-MB-231 breast = system: MDA-MB-231 breast
NCI-H460 lung = system: NCI-H460 lung
PC-3 prostate = system: PC-3 prostate
SNB-19 CNS = system: SNB-19 CNS
TK-10 renal = system: TK-10 renal

SMILES | GI50 (CAKI-1 renal) | TGI (CAKI-1 renal) | GI50 (K-562 leukemia) | TGI (K-562 leukemia) | GI50 (MALME-3M melanoma) | TGI (MALME-3M melanoma) | GI50 (MCF7 breast) | TGI (MCF7 breast) | GI50 (MDA-MB-231 breast) | TGI (MDA-MB-231 breast) | GI50 (NCI-H460 lung) | TGI (NCI-H460 lung) | GI50 (PC-3 prostate) | TGI (PC-3 prostate) | GI50 (SNB-19 CNS) | TGI (SNB-19 CNS) | GI50 (TK-10 renal) | TGI (TK-10 renal)
CCNC(=O)[C@@H]1CCCN2C(=O)CC[C@H](NC(=O)[C@H](Cc3ccc(OP(=O)(O)O)cc3)NC(C)=O)C(=O)N12 | > 25 µM | > 25 µM | > 25 µM | > 25 µM | > 25 µM | > 25 µM | > 25 µM | > 25 µM | > 25 µM | > 25 µM | > 25 µM | > 25 µM | > 25 µM | > 25 µM | > 25 µM | > 25 µM | > 25 µM | > 25 µM
O=C(NC1CCN(Cc2ccccc2)CC1)c1cc(-c2ccncc2)nc2ccc(Cl)cc12 | 5.43 µM | > 50.5 µM | 3.78 µM | 27.3 µM | 9.39 µM | 26.9 µM | 5.66 µM | 30.6 µM | 4.5 µM | > 59.9 µM | 11.4 µM | 33.7 µM | 13.6 µM | > 100 µM | 26.3 µM | > 100 µM | 29.7 µM | > 91.8 µM
CCc1nc(N)nc(N)c1-c1ccc(NCCN)c([N+](=O)[O-])c1 |  | > 100 µM |  | > 100 µM |  | 40.7 µM |  | > 78.3 µM |  | > 100 µM |  | > 100 µM |  | > 100 µM |  | > 100 µM |  | > 100 µM
Cn1cc(-c2ccc3c(Nc4cccc(NC(=O)Nc5cccc(F)c5)c4)ncnc3c2)cn1 | 0.559 µM | 14.9 µM | 2.14 µM | > 100 µM | 1.29 µM | 3.79 µM | 1.14 µM | 5.07 µM | 2.88 µM | 12.3 µM | 0.984 µM | 2.41 µM | 2.78 µM | 15.5 µM | 3.16 µM | 13.5 µM | 2.72 µM | 10.2 µM
COc1cccc(C2c3cc4c(cc3OC(C)(N3CCCC3)C2C)OCO4)c1OC (stereo not drawn) |  | 47.4 µM |  | 53.1 µM |  | 66.5 µM |  | 98.6 µM |  | 52.9 µM |  | 28.4 µM |  | 41.2 µM |  | 95.5 µM |  | 89.1 µM
CCCCON(OC(=O)c1ccccc1)C(=O)c1ccccc1 | > 100 µM | > 100 µM | 93.4 µM | > 100 µM | > 100 µM | > 100 µM | > 100 µM | > 100 µM | > 100 µM | > 100 µM | > 100 µM | > 100 µM | > 100 µM | > 100 µM | > 100 µM | > 100 µM | > 100 µM | > 100 µM
CC(=O)NCCc1c2c(c3nccc4c3c1Nc1ccccc1-4)OCS2 | 0.249 µM | 8.59 µM | 2.93 µM | 56.2 µM | 7.28 µM | 24.7 µM | 0.801 µM | 8.47 µM | 0.594 µM | 6.61 µM | 0.498 µM | 9.98 µM | 2.95 µM | 9.33 µM | 3.17 µM | 18.8 µM | 5.56 µM | 18.9 µM
